In PMC12596731, “Cys–Lys stapling for unprotected peptides via tunable linkers” (National Science Review, 2025):

Test: Cys-Lys stapling of unprotected peptides with unsymmetrical linker (1.5 equiv): Cys thiol displaces phthalimide from N-thiophthalimide (disulfide, ~1 min), then ring closure by Lys amine attack on pentafluorophenyl ester with DIPEA (4 equiv)
Details: the molecule shown is the open-chain precursor, CH3CN:H2O 3:1, 25.0 °C, 0.167 h

CC(=O)N[C@@H](CCC(N)=O)C(=O)N[C@@H](CO)C(=O)N[C@@H](CCC(N)=O)C(=O)N[C@@H](CCC(N)=O)C(=O)N[C@H](C(=O)N[C@@H](Cc1ccccc1)C(=O)N[C@@H](CSS/C(=C/Cl)CCOc1ccccc1C(=O)Oc1c(F)c(F)c(F)c(F)c1F)C(=O)N[C@@H](CC(N)=O)C(=O)N[C@@H](CC(C)C)C(=O)N[C@@H](Cc1c[nH]c2ccccc12)C(=O)N[C@@H](CCCNC(=N)N)C(=O)N[C@@H](CC(C)C)C(=O)N[C@@H](CC(C)C)C(=O)N[C@@H](CCCCN)C(=O)N[C@@H](CCC(N)=O)C(=O)N[C@@H](CC(N)=O)C(N)=O)[C@@H](C)O
ring closure, isolated yield (37-membered ring): 65%

CC(=O)N[C@@H](CCC(N)=O)C(=O)N[C@@H](CO)C(=O)N[C@@H](CCC(N)=O)C(=O)N[C@@H](CCC(N)=O)C(=O)N[C@H](C(=O)N[C@@H](Cc1ccccc1)C(=O)N[C@@H](CSS/C(=C/Cl)CCCCCC(=O)Oc1c(F)c(F)c(F)c(F)c1F)C(=O)N[C@@H](CC(N)=O)C(=O)N[C@@H](CC(C)C)C(=O)N[C@@H](Cc1c[nH]c2ccccc12)C(=O)N[C@@H](CCCNC(=N)N)C(=O)N[C@@H](CC(C)C)C(=O)N[C@@H](CC(C)C)C(=O)N[C@@H](CCCCN)C(=O)N[C@@H](CCC(N)=O)C(=O)N[C@@H](CC(N)=O)C(N)=O)[C@@H](C)O
ring closure, isolated yield (37-membered ring): 78%

CC(=O)N[C@@H](CCCCN)C(=O)N[C@@H](C)C(=O)N[C@@H](C)C(=O)N[C@@H](C)C(=O)N[C@@H](CSS/C(=C/Cl)c1cccc(C(=O)Oc2c(F)c(F)c(F)c(F)c2F)c1)C(=O)N[C@@H](Cc1ccccc1)C(N)=O [Ac-Lys-Ala-Ala-Ala-Cys(S-linker 3j-OPfp)-Phe-NH2]
ring closure, isolated yield (26-membered ring): 72%

CC(=O)N[C@@H](CCCCN)C(=O)N[C@@H](C)C(=O)N[C@@H](C)C(=O)N[C@@H](C)C(=O)N[C@@H](CSS/C(=C/Cl)CCCCC(=O)Oc1c(F)c(F)c(F)c(F)c1F)C(=O)N[C@@H](Cc1ccccc1)C(N)=O [Ac-Lys-Ala-Ala-Ala-Cys(S-linker 3c-OPfp)-Phe-NH2]
ring closure, isolated yield (27-membered ring): 79%

CC(=O)N[C@H](C(=O)N[C@@H](CO)C(=O)N[C@@H](Cc1ccccc1)C(=O)N[C@@H](CCCCN)C(=O)N[C@@H](CCC(N)=O)C(=O)N[C@@H](Cc1ccc(O)cc1)C(=O)N[C@@H](Cc1c[nH]c2ccccc12)C(=O)N[C@@H](CSS/C(=C/Cl)CCCC(=O)Oc1c(F)c(F)c(F)c(F)c1F)C(=O)N[C@@H](CC(C)C)C(=O)N[C@@H](CC(C)C)C(=O)N[C@@H](CO)C(=O)N[C@@H](CCCNC(=N)N)C(N)=O)[C@@H](C)O
ring closure, isolated yield (26-membered ring): 85%

CC[C@H](C)[C@H](NC(=O)[C@@H]1CCCN1C(=O)[C@H](CSS/C(=C/Cl)CCOc1ccccc1C(=O)Oc1c(F)c(F)c(F)c(F)c1F)NC(C)=O)C(=O)N[C@@H](CCSC)C(=O)N[C@@H](CCC(=O)O)C(=O)N[C@@H](CC(=O)O)C(=O)N[C@@H](CCCNC(=N)N)C(=O)N[C@@H](CCCCN)C(=O)N1CCC[C@H]1C(N)=O [Ac-Cys(S-linker 3i-OPfp)-Pro-Ile-Met-Glu-Asp-Arg-Lys-Pro-NH2]
ring closure, isolated yield (37-membered ring): 65%

CC[C@H](C)[C@H](NC(=O)[C@@H]1CCCN1C(=O)[C@H](CSS/C(=C/Cl)CCOc1ccc(C(=O)Oc2c(F)c(F)c(F)c(F)c2F)cc1)NC(C)=O)C(=O)N[C@@H](CCSC)C(=O)N[C@@H](CCC(=O)O)C(=O)N[C@@H](CC(=O)O)C(=O)N[C@@H](CCCNC(=N)N)C(=O)N[C@@H](CCCCN)C(=O)N1CCC[C@H]1C(N)=O [Ac-Cys(S-linker 3m-OPfp)-Pro-Ile-Met-Glu-Asp-Arg-Lys-Pro-NH2]
ring closure, isolated yield (39-membered ring): 62%

CC(=O)N[C@@H](CCC(N)=O)C(=O)N[C@@H](CO)C(=O)N[C@@H](CCC(N)=O)C(=O)N[C@@H](CCC(N)=O)C(=O)N[C@H](C(=O)N[C@@H](Cc1ccccc1)C(=O)N[C@@H](CSS/C(=C/Cl)CCCCCCCCC(=O)Oc1c(F)c(F)c(F)c(F)c1F)C(=O)N[C@@H](CC(N)=O)C(=O)N[C@@H](CC(C)C)C(=O)N[C@@H](Cc1c[nH]c2ccccc12)C(=O)N[C@@H](CCCNC(=N)N)C(=O)N[C@@H](CC(C)C)C(=O)N[C@@H](CC(C)C)C(=O)N[C@@H](CCCCN)C(=O)N[C@@H](CCC(N)=O)C(=O)N[C@@H](CC(N)=O)C(N)=O)[C@@H](C)O
ring closure, isolated yield (40-membered ring): 75%

CC(=O)N[C@@H](CCC(N)=O)C(=O)N[C@@H](CO)C(=O)N[C@@H](CCC(N)=O)C(=O)N[C@@H](CCC(N)=O)C(=O)N[C@H](C(=O)N[C@@H](Cc1ccccc1)C(=O)N[C@@H](CSS/C(=C/Cl)CCOc1ccc(C(=O)Oc2c(F)c(F)c(F)c(F)c2F)cc1)C(=O)N[C@@H](CC(N)=O)C(=O)N[C@@H](CC(C)C)C(=O)N[C@@H](Cc1c[nH]c2ccccc12)C(=O)N[C@@H](CCCNC(=N)N)C(=O)N[C@@H](CC(C)C)C(=O)N[C@@H](CC(C)C)C(=O)N[C@@H](CCCCN)C(=O)N[C@@H](CCC(N)=O)C(=O)N[C@@H](CC(N)=O)C(N)=O)[C@@H](C)O
ring closure, isolated yield (39-membered ring): 68%

CC(=O)N[C@@H](CCC(N)=O)C(=O)N[C@@H](CO)C(=O)N[C@@H](CCC(N)=O)C(=O)N[C@@H](CCC(N)=O)C(=O)N[C@H](C(=O)N[C@@H](Cc1ccccc1)C(=O)N[C@@H](CSS/C(=C/Cl)CCOc1cccc(C(=O)Oc2c(F)c(F)c(F)c(F)c2F)c1)C(=O)N[C@@H](CC(N)=O)C(=O)N[C@@H](CC(C)C)C(=O)N[C@@H](Cc1c[nH]c2ccccc12)C(=O)N[C@@H](CCCNC(=N)N)C(=O)N[C@@H](CC(C)C)C(=O)N[C@@H](CC(C)C)C(=O)N[C@@H](CCCCN)C(=O)N[C@@H](CCC(N)=O)C(=O)N[C@@H](CC(N)=O)C(N)=O)[C@@H](C)O
ring closure, isolated yield (38-membered ring): 85%

CC[C@H](C)[C@H](NC(=O)[C@@H]1CCCN1C(=O)[C@H](CSS/C(=C/Cl)CCCCCC(=O)Oc1c(F)c(F)c(F)c(F)c1F)NC(C)=O)C(=O)N[C@@H](CCSC)C(=O)N[C@@H](CCC(=O)O)C(=O)N[C@@H](CC(=O)O)C(=O)N[C@@H](CCCNC(=N)N)C(=O)N[C@@H](CCCCN)C(=O)N1CCC[C@H]1C(N)=O [Ac-Cys(S-linker 3d-OPfp)-Pro-Ile-Met-Glu-Asp-Arg-Lys-Pro-NH2]
ring closure, isolated yield (37-membered ring): 78%

CC(=O)N[C@H](C(=O)N[C@@H](CO)C(=O)N[C@@H](Cc1ccccc1)C(=O)N[C@@H](CCCCN)C(=O)N[C@@H](CCC(N)=O)C(=O)N[C@@H](Cc1ccc(O)cc1)C(=O)N[C@@H](Cc1c[nH]c2ccccc12)C(=O)N[C@@H](CSS/C(=C/Cl)CCOc1cccc(C(=O)Oc2c(F)c(F)c(F)c(F)c2F)c1)C(=O)N[C@@H](CC(C)C)C(=O)N[C@@H](CC(C)C)C(=O)N[C@@H](CO)C(=O)N[C@@H](CCCNC(=N)N)C(N)=O)[C@@H](C)O
ring closure, isolated yield (29-membered ring): 85%

CC(=O)N[C@H](C(=O)N[C@@H](CO)C(=O)N[C@@H](Cc1ccccc1)C(=O)N[C@@H](CCCCN)C(=O)N[C@@H](CCC(N)=O)C(=O)N[C@@H](Cc1ccc(O)cc1)C(=O)N[C@@H](Cc1c[nH]c2ccccc12)C(=O)N[C@@H](CSS/C(=C/Cl)CCCCC(=O)Oc1c(F)c(F)c(F)c(F)c1F)C(=O)N[C@@H](CC(C)C)C(=O)N[C@@H](CC(C)C)C(=O)N[C@@H](CO)C(=O)N[C@@H](CCCNC(=N)N)C(N)=O)[C@@H](C)O
ring closure, isolated yield (27-membered ring): 76%

CC(=O)N[C@H](C(=O)N[C@@H](CO)C(=O)N[C@@H](Cc1ccccc1)C(=O)N[C@@H](CCCCN)C(=O)N[C@@H](CCC(N)=O)C(=O)N[C@@H](Cc1ccc(O)cc1)C(=O)N[C@@H](Cc1c[nH]c2ccccc12)C(=O)N[C@@H](CSS/C(=C/Cl)CCOc1ccccc1C(=O)Oc1c(F)c(F)c(F)c(F)c1F)C(=O)N[C@@H](CC(C)C)C(=O)N[C@@H](CC(C)C)C(=O)N[C@@H](CO)C(=O)N[C@@H](CCCNC(=N)N)C(N)=O)[C@@H](C)O
ring closure, isolated yield (28-membered ring): 82%

CC(=O)N[C@H](C(=O)N[C@@H](CO)C(=O)N[C@@H](Cc1ccccc1)C(=O)N[C@@H](CCCCN)C(=O)N[C@@H](CCC(N)=O)C(=O)N[C@@H](Cc1ccc(O)cc1)C(=O)N[C@@H](Cc1c[nH]c2ccccc12)C(=O)N[C@@H](CSS/C(=C/Cl)COCC(=O)Oc1c(F)c(F)c(F)c(F)c1F)C(=O)N[C@@H](CC(C)C)C(=O)N[C@@H](CC(C)C)C(=O)N[C@@H](CO)C(=O)N[C@@H](CCCNC(=N)N)C(N)=O)[C@@H](C)O
ring closure, isolated yield (26-membered ring): 78%

CC(=O)N[C@@H](CCC(N)=O)C(=O)N[C@@H](CO)C(=O)N[C@@H](CCC(N)=O)C(=O)N[C@@H](CCC(N)=O)C(=O)N[C@H](C(=O)N[C@@H](Cc1ccccc1)C(=O)N[C@@H](CSS/C(=C/Cl)CCCCC(=O)Oc1c(F)c(F)c(F)c(F)c1F)C(=O)N[C@@H](CC(N)=O)C(=O)N[C@@H](CC(C)C)C(=O)N[C@@H](Cc1c[nH]c2ccccc12)C(=O)N[C@@H](CCCNC(=N)N)C(=O)N[C@@H](CC(C)C)C(=O)N[C@@H](CC(C)C)C(=O)N[C@@H](CCCCN)C(=O)N[C@@H](CCC(N)=O)C(=O)N[C@@H](CC(N)=O)C(N)=O)[C@@H](C)O
ring closure, isolated yield (36-membered ring): 84%

CC(=O)N[C@@H](CCC(N)=O)C(=O)N[C@@H](CO)C(=O)N[C@@H](CCC(N)=O)C(=O)N[C@@H](CCC(N)=O)C(=O)N[C@H](C(=O)N[C@@H](Cc1ccccc1)C(=O)N[C@@H](CSS/C(=C/Cl)COCC(=O)Oc1c(F)c(F)c(F)c(F)c1F)C(=O)N[C@@H](CC(N)=O)C(=O)N[C@@H](CC(C)C)C(=O)N[C@@H](Cc1c[nH]c2ccccc12)C(=O)N[C@@H](CCCNC(=N)N)C(=O)N[C@@H](CC(C)C)C(=O)N[C@@H](CC(C)C)C(=O)N[C@@H](CCCCN)C(=O)N[C@@H](CCC(N)=O)C(=O)N[C@@H](CC(N)=O)C(N)=O)[C@@H](C)O
ring closure, isolated yield (35-membered ring): 89%
